Assays:
[1] = tested on: Magnaporthe grisea; assay: whole plant or invertebrate; format: in vivo; settings: Blast on rice; control value class
[2] = tested on: Alternaia brassicicola; assay: Test Example C: Alternaria sooty spot on cabbage; format: in vivo; settings: Alternaria sooty spot on cabbage; control value class
Source text: Seeds of a test plant (cabbage variety: Shikidori) were planted and cultivated until the cotyledons extended.
<Control Value> Control value=100{1−(n/3)}

[3] = tested on: Puccinia recondita; assay: Test Example E: Brown rust on wheat; format: in vivo; settings: Brown rust on wheat; control value class
[4] = tested on: Phytophthora infestans; assay: whole plant or invertebrate; format: in vivo; settings: Late blight on tomato; control value class
[5] = tested on: Botrytis cinerea; assay: Test Example B: Gray mold on tomato; settings: Gray mold on tomato; control value class
[6] = tested on: Plasmopara viticola; assay: Test Example G: Downy mildew on vine; settings: Downy mildew on vine; 250 ppm spray, 7 to 10 days after inoculation
[7] = tested on: Colletotrichum orbiculare; assay: Test Example H: Anthracnose on cucumber; settings: Anthracnose on cucumber; 250 ppm spray, 6 to 10 days after inoculation
[8] = tested on: Blumeria graminis f. sp. hordei; assay: Test Example D: Powdery mildew on barley; settings: Powdery mildew on barley; control value class

CCCCCCCCc1cc(Cl)c(=O)n(CC)c1-c1ccc(F)cc1Cl [compound 271]
H (more than 50% control value): Test D control value [8]
L (50% or less control value): Test A control value [1] | Test C control value [2] | Test E control value [3] | Test F control value [4] | Test B control value [5] | Test G control value [6] | Test H control value [7]

CCCCCCCCc1cc(Br)c(=O)n(CC)c1-c1ccc(F)cc1Cl [compound 272]
H (more than 50% control value): Test E control value [3]
L (50% or less control value): Test A control value [1] | Test C control value [2] | Test F control value [4] | Test B control value [5] | Test G control value [6] | Test H control value [7] | Test D control value [8]

CCCCCCCCCc1ccc(=O)n(CC)c1-c1ccc(F)cc1Cl [compound 273]
H (more than 50% control value): Test D control value [8]
L (50% or less control value): Test A control value [1] | Test C control value [2] | Test E control value [3] | Test F control value [4] | Test B control value [5] | Test G control value [6] | Test H control value [7]

CCCCCCCCCc1cc(Cl)c(=O)n(CC)c1-c1ccc(F)cc1Cl [compound 274]
L (50% or less control value): Test A control value [1] | Test C control value [2] | Test E control value [3] | Test F control value [4] | Test B control value [5] | Test G control value [6] | Test H control value [7]
H (more than 50% control value): Test D control value [8]

CCCCCCCCCc1cc(Br)c(=O)n(CC)c1-c1ccc(F)cc1Cl [compound 275]
H (more than 50% control value): Test D control value [8]
L (50% or less control value): Test A control value [1] | Test C control value [2] | Test E control value [3] | Test F control value [4] | Test B control value [5] | Test G control value [6] | Test H control value [7]

CCCCC(O)c1cc(Cl)c(=O)n(CC)c1-c1c(F)cc(F)cc1F (stereo not shown) [compound 276]
H (more than 50% control value): Test A control value [1] | Test C control value [2] | Test E control value [3] | Test B control value [5] | Test G control value [6] | Test D control value [8]
L (50% or less control value): Test F control value [4] | Test H control value [7]

CCCCC(=O)c1cc(Cl)c(=O)n(CC)c1-c1c(F)cc(F)cc1F [compound 277]
L (50% or less control value): Test F control value [4]
H (more than 50% control value): Test A control value [1] | Test C control value [2] | Test E control value [3] | Test B control value [5] | Test G control value [6] | Test H control value [7] | Test D control value [8]

CCN1C(=O)CCC(C)=C1c1ccc(F)cc1Cl [compound 278]
L (50% or less control value): Test A control value [1] | Test C control value [2] | Test E control value [3] | Test B control value [5] | Test G control value [6] | Test D control value [8]
H (more than 50% control value): Test F control value [4] | Test H control value [7]

CCn1c(-c2ccc(F)cc2Cl)c(C)ccc1=O [compound 279]
L (50% or less control value): Test A control value [1] | Test C control value [2] | Test E control value [3] | Test F control value [4] | Test B control value [5] | Test G control value [6] | Test H control value [7]
H (more than 50% control value): Test D control value [8]

CCn1c(-c2ccc(F)cc2Cl)c(C)cc(Cl)c1=O [compound 280]
L (50% or less control value): Test A control value [1] | Test C control value [2] | Test F control value [4] | Test G control value [6]
H (more than 50% control value): Test E control value [3] | Test B control value [5] | Test H control value [7] | Test D control value [8]

CCn1c(-c2ccc(F)cc2Cl)c(C)cc(Br)c1=O [compound 281]
H (more than 50% control value): Test E control value [3] | Test B control value [5] | Test H control value [7] | Test D control value [8]
L (50% or less control value): Test A control value [1] | Test C control value [2] | Test F control value [4] | Test G control value [6]

CCCCCCC1=C(c2ccc(F)cc2Cl)N(CC)C(=O)CC1 [compound 282]
L (50% or less control value): Test A control value [1] | Test C control value [2] | Test E control value [3] | Test F control value [4] | Test B control value [5] | Test G control value [6] | Test H control value [7]
H (more than 50% control value): Test D control value [8]

C#CC(O)c1cc(Cl)c(=O)n(CC)c1-c1c(F)cc(F)cc1F (stereo not shown) [compound 283]
H (more than 50% control value): Test C control value [2] | Test E control value [3] | Test B control value [5] | Test H control value [7]
L (50% or less control value): Test A control value [1] | Test F control value [4] | Test G control value [6] | Test D control value [8]

C#CC(=O)c1cc(Cl)c(=O)n(CC)c1-c1c(F)cc(F)cc1F [compound 284]
H (more than 50% control value): Test C control value [2] | Test E control value [3] | Test F control value [4] | Test B control value [5] | Test G control value [6] | Test H control value [7] | Test D control value [8]
L (50% or less control value): Test A control value [1]

C#CC(OC)c1cc(Cl)c(=O)n(CC)c1-c1c(F)cc(F)cc1F (stereo not shown) [compound 285]
L (50% or less control value): Test F control value [4] | Test G control value [6]
H (more than 50% control value): Test A control value [1] | Test C control value [2] | Test E control value [3] | Test B control value [5] | Test H control value [7] | Test D control value [8]

C#CC(F)c1cc(Cl)c(=O)n(CC)c1-c1c(F)cc(F)cc1F (stereo not shown) [compound 286]
H (more than 50% control value): Test C control value [2] | Test E control value [3] | Test B control value [5] | Test H control value [7]
L (50% or less control value): Test A control value [1] | Test F control value [4] | Test G control value [6] | Test D control value [8]

CCn1c(-c2ccc(OC)cc2)c(C=O)cc(Cl)c1=O [compound 287]
H (more than 50% control value): Test C control value [2]
L (50% or less control value): Test A control value [1] | Test E control value [3] | Test F control value [4] | Test B control value [5] | Test G control value [6] | Test H control value [7] | Test D control value [8]

Source: patent publication US11147272B2, “Pyridone compounds and agricultural and horticultural fungicides comprising the same as active ingredients” (MITSUI CHEMICALS AGRO, INC., priority 2017, dated 2021)
